Patent US20220289751A1, “COMPOUND HAVING KDM5 INHIBITORY ACTIVITY AND PHARMACEUTICAL USE THEREOF” (ONO PHARMACEUTICAL CO., LTD., priority 2019, published 2022)

Assays:
[1] = system: Wild type MDCKII cells; assay: Permeability in wild type MDCK cell lines (MDCK-WT); format: in vitro ADME; conditions: apical to basal, 10 μM test compound, 60 min, pH 7.4
Description: (§1) Wild type MDCKII cells were seeded onto an apical chamber 3 days prior to running the assay at a density of 2.3×10^5 cells per well. The integrity of cell monolayers was evaluated by examining the permeability of lucifer yellow assay using a Spectramax Gemini XS with excitation and emission at 426 nm and 538 nm respectively. Permeation of Lucifer Yellow should be ≤10×10^−6 cm/s for the experimental data to be accepted. The cell monolayers were preincubated in transport buffer (HBSS with CaCl2 and MgCl2)+25 mM HEPES, adjust to pH 7.4) at 37° C. or more than 20 min. Transport experiment was initiated by adding test compound solution (10 μM) to the apical chamber. Samples were obtained from basal chamber at 60 min, followed by addition of ice-cold acetonitrile containing internal standard. LC-MS/MS analysis was conducted as specified below. Standard calibration samples were prepared using the same matrix and analysed in the same manner. [table] […] Papp(cm/s)=(dCB/dt)×VB/(A×CA) dCB/dt is the slope of the cumulative concentration in basal side versus time VB is the volume of the basal compartment A is the area of the membrane surface area CA is the initial concentration in apical side

[2] = molecular target: T1, KDM5A protein (Homo sapiens, UniProt P29375); assay: Biochemical KDM5A inhibition assay (HTRF); conditions: 20 nM enzyme concentration, read-out: IC50 value
T1 construct: purchased BPS Bioscience 50110
T1 sequence (P29375 whole entry): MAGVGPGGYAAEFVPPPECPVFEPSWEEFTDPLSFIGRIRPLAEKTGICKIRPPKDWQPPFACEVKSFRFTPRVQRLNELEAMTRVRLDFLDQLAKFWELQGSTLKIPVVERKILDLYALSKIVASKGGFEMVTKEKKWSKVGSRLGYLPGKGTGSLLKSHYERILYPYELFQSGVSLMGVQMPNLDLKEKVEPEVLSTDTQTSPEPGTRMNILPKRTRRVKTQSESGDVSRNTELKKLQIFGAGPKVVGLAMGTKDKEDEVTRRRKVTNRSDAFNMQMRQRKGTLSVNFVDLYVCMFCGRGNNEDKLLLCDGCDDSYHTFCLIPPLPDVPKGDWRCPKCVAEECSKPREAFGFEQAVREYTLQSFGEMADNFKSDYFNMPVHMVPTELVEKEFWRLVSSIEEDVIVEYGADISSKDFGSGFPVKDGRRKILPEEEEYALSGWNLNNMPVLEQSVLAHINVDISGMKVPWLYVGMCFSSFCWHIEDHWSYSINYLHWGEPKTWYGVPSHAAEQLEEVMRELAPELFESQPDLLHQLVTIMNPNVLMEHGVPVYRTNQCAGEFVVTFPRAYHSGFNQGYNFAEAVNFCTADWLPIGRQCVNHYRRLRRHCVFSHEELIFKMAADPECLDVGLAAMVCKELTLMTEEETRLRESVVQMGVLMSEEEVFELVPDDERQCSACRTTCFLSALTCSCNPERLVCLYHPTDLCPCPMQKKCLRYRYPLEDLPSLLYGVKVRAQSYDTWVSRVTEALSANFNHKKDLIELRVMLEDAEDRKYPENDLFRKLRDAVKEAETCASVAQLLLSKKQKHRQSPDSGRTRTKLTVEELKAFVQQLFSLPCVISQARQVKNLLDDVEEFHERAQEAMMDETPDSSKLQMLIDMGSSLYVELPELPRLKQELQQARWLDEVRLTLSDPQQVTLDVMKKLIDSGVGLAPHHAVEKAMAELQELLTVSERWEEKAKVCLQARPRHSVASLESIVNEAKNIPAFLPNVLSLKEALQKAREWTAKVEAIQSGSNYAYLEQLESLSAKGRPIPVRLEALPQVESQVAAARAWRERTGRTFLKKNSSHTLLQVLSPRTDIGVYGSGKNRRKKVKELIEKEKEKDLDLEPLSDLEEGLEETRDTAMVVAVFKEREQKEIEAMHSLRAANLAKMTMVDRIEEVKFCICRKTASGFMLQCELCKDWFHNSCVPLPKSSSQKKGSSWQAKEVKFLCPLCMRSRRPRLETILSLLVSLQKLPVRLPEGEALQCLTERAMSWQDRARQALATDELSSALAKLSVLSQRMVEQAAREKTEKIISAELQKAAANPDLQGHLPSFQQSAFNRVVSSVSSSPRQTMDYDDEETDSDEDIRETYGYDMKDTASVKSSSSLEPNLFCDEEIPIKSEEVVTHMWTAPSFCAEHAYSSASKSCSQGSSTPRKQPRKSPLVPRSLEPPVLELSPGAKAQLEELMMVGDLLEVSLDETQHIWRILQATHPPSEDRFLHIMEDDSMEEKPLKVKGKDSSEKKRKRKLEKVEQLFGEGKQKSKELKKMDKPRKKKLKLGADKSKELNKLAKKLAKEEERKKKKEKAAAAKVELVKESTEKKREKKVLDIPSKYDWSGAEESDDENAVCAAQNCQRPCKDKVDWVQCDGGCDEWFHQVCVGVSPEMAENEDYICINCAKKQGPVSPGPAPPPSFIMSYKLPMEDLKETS
Description: Using 384-well white ProxiPlates (PerkinElmer), representative compounds were characterized for their inhibition of KDM5A using HTRF® technology (Cisbio Bioassays). Briefly, the test compounds, reference compounds, and DMSO control (typical compound concentration range 300 pM-10 μM, final assay concentration (FAC) of DMSO 0.5%) were added to 384-well plate by the Echo® acoustic dispensing platform (Labcyte). Three (3) μ1 of KDM5A protein (BPS Bioscience, Cat #50110)(10 or 20 nM FAC) in assay buffer (50 mM MES, 50 mM NaCl, 2 mM ascorbic acid, 0.01% v/v Tween 20, pH 6.5) was added to wells and plates were incubated for 10 minutes at room temperature. Then, 3 μl of biotin-labelled H3K4-me3 substrate (Anaspec Cat #AS-64357-1; 100 nM FAC), alpha-ketoglutaric acid ([…]) and Fe(II)SO4 (FAC 100 μM) in assay buffer was added and plates were incubated for 60 minutes at room temperature. The reaction was stopped with the addition of 6 μl of anti-H3-[…]-Eu(K) (Cisbio Bioassays Cat #61KA2KAE; 0.025 μg/ml FAC)+Streptavidin XL665 (Cisbio Bioassays Cat #610SAXLA; 0.5 μg/ml FAC) in HTRF detection buffer (Cisbio Bioassays Cat #62SDBRDD). The mixture was incubated for 90 minutes at room temperature before 340 nm excitation and measurement of dual emission at 620 nm and 665 nm. The raw data (a 665 nm and a 620 nm reading from each well) for individual assay plates were analyzed. The ratio of emissions was calculated using the following calculation: Ratio=(665 nm emission/620 nm emission)*10000. Using DMSO control (maximum response or 0% inhibition) and 1 μM reference control compound (minimum response or 100% inhibition), percentage inhibition values for each well were calculated using the median values of the minimum and maximum control wells and the following calculation: % Inhibition=(Well ratio-max control ratio)/(min control ratio-max control ratio)*100. Compound IC50 values were calculated from graphs of % inhibition plotted against compound concentration, using a four parameter curve fit.

[3] = Permeability in wild type MDCK cell lines (MDCK-WT); format: in vitro ADME; conditions: dog, MDCK, pH 7.4, apical to basal, 10 μM test compound, read-out: MDCK-WT (Papp)
Description: as §1

| MDCK-WT (Papp) [10^−6 cm/s] [1] | IC50 [2] | Papp A→B at 60 min, 10 μM [3] | Compound |
| --- | --- | --- | --- |
| 20 10^−6 cm/s | – | – | CC(C)c1cc(C(=O)N2C[C@@H]3[C@H](C2)[C@H]3C(=O)N2CCCC2(C)C)n[nH]1 [EXAMPLE 131, (2,2-Dimethylpyrrolidin-1-yl)((1R,5S,6r)-3-(5-isopropyl-1H-pyrazole-3-carbonyl)-3-azabicyclo[3.1.0]hexan-6-yl)methanone] |
| 24 10^−6 cm/s | – | – | Cc1onc([C@H]2[C@@H]3CN(C(=O)c4cc(C(C)C)[nH]n4)C[C@@H]32)c1-c1ccccc1 [EXAMPLE 134, (5-Isopropyl-1H-pyrazol-3-yl)((1R,5S,6r)-6-(5-methyl-4-phenylisoxazol-3-yl)-3-azabicyclo[3.1.0]hexan-3-yl)methanone] |
| – | 600 nM | 8 ×10⁻⁶ cm/s | CC(C)c1cc(C(=O)N2CC3(C2)CN(C(=O)C2CC2)C3C)n[nH]1 (single isomer, unassigned) [EXAMPLE 92, [2-(Cyclopropanecarbonyl)-3-methyl-2,6-diazaspiro[3.3]heptan-6-yl]-(5-isopropyl-1H-pyrazol-3-yl)methanone] |

Second part, the compound before the results:

| Compound | MDCK-WT (Papp) [10^−6 cm/s] [1] | IC50 [2] | Papp A→B at 60 min, 10 μM [3] |
| --- | --- | --- | --- |
| O=C(NC1CN(C(=O)c2cc(C3CC3)[nH]n2)C1)C1CC12CC2 (single isomer, unassigned) [EXAMPLE 105, N-(1-(5-cyclopropyl-1H-pyrazole-3-carbonyl)azetidin-3-yl)spiro[2.2]pentane-1-carboxamide] | 6 10^−6 cm/s | – | – |
| CC(C)n1c(N2CC(c3ccccc3)C2)nn2c(-c3cnc[nH]3)cnc2c1=O [EXAMPLE 8, 7-(1H-imidazol-5-yl)-3-isopropyl-2-(3-phenylazetidin-1-yl)imidazo[2,1-f][1,2,4]triazin-4(3H)-one] | – | 40 nM | 23 ×10⁻⁶ cm/s |
| CC(C)c1c(-c2ccccc2)[nH]n2c(C#N)cnc2c1=O [EXAMPLE 95, 7-Isopropyl-8-oxo-6-phenyl-5,8-dihydroimidazo[1,2-b]pyridazine-3-carbonitrile] | – | 400 nM | 66 ×10⁻⁶ cm/s |
